# According to patent US20160029629A1, “LAWN GROWTH-PROMOTING AGENT AND METHOD OF USING SAME” (BAYER CROPSCIENCE AKTIENGESELLSCHAFT, priority 2013, published 2016):
# How the values were obtained:
# Agrostis stolonifera = assay: Biologic Example 2: seeded lawn test, length of above-ground and root portions after soil treatment; assay type: in vivo
# Method: Test crop: Agrostis stolonifera Test method: Plastic cups (diameter 20 cm, depth 5 cm) were filled with a soil mixture (1:1 mixture of sand and mulch), the soil was treated (2,000 L/ha water) with penflufen prepared to a predetermined concentration (Cerenturf Forte) on the day A. stolonifera was planted and at 0.5 leaf cycles, after which germination state was examined. In order to ensure evenness of irrigation, an atomizer was used for a fixed number of pushes, and water amount was monitored so as to be uniform. A basal application was not used. Examination method: Cuttings were taken at random from the test area, and the lengths of the above-ground and root portions were measured.
# Zoysia Matrella = assay: Biological Example 1: sod growth test, weight of roots, runners and erect stems after spray treatment; assay type: in vivo; conditions: for Roots weight: 334 ppm spray, 2,000 L/ha; for Roots weight / Erect stem weight / Erect stems/runners / Roots weight vs. untreated / Roots/(roots + runners + erect stems) / Roots/runners / Runner weight: 170 days later; for Erect stem weight / Erect stems/runners / Roots weight vs. untreated / Roots/(roots + runners + erect stems) / Roots/runners / Runner weight: 334 ppm spray
# Excerpt: Test crop: Zoysia Matrella
# Test method: Z. Matrella sod was laid in a roughly 15 cm checked pattern, and, approximately one month later, penflufen prepared to a predetermined concentration (Cerenturf Forte; aqueous suspension of 22.7 wt % penflufen and 77.3% surfactant and water, prepared according to a normal method) was sprayed thereon (2,000 L/ha). 170 days later, a hole cutter was used to cut out sod sections and interstitial sections, the sections were separated into roots, runners, and erect stems, and the weight of each was measured.
# [1] = tested on: brown patch (Rhizoctonia solani); conditions: in vivo; cited from earlier work
# [2] = 525 ppm, treated at 0.5 leaf cycles, 5 days after treatment
# [3] = 525 ppm, treated on day of planting, 20 days after treatment
# [4] = 142 ppm, treated at 0.5 leaf cycles, 5 days after treatment
# [5] = 142 ppm, treated on day of planting, 20 days after treatment
# [6] = 283 ppm, treated at 0.5 leaf cycles, 5 days after treatment
# [7] = 283 ppm, treated on day of planting, 20 days after treatment
structure (smiles),measurement,setting,value
Cc1nc(C(F)(F)F)c(C(=O)Nc2c(Br)cc(OC(F)(F)F)cc2Br)s1 [Thifluzamide],Above-ground portion (mm),Agrostis stolonifera; [2],16.9 mm
same,Roots (mm),Agrostis stolonifera; [2],2.0 mm
same,Roots/above-ground portion %,Agrostis stolonifera; [2],12.0%
same,Above-ground portion (mm),Agrostis stolonifera; [3],15.3 mm
same,Roots (mm),Agrostis stolonifera; [3],1.4 mm
same,Roots/above-ground portion %,Agrostis stolonifera; [3],9.1%
"Cc1nn(C)c(F)c1C(=O)Nc1ccccc1C(C)CC(C)C (stereo not shown) [Penflufen, N-[2-(1,3-dimethylbutyl)phenyl]-5-fluoro-1,3-dimethyl-1H-pyrazol-4-carboxamide]",Amount of roots compared to the untreated area,Zoysia Matrella; both the interstitial section and the sod section,increase in the amount of roots
same,"Ratio of the root weight to the total weight of the roots, runners, and erect stems, treated vs untreated area",Zoysia Matrella; in vivo,higher in the treated area than in the untreated area
same,Amount of roots compared to the untreated area,Zoysia Matrella; interstitial section,especially marked increase
same,Roots weight,Zoysia Matrella; interstitial section,1.13 g
same,Erect stem weight,Zoysia Matrella; interstitial section,4.57 g
same,Erect stems/runners,Zoysia Matrella; interstitial section,124%
same,Roots weight vs. untreated,Zoysia Matrella; interstitial section,127%
same,Roots/(roots + runners + erect stems),Zoysia Matrella; interstitial section,12.02%
same,Roots/runners,Zoysia Matrella; interstitial section,31%
same,Runner weight,Zoysia Matrella; interstitial section,3.70 g
same,Roots weight,Zoysia Matrella; sod section,1.57 g
same,Erect stem weight,Zoysia Matrella; sod section,11.52 g
same,Erect stems/runners,Zoysia Matrella; sod section,130%
same,Roots weight vs. untreated,Zoysia Matrella; sod section,103%
same,Roots/(roots + runners + erect stems),Zoysia Matrella; sod section,7.16%
same,Roots/runners,Zoysia Matrella; sod section,18%
same,Runner weight,Zoysia Matrella; sod section,8.84 g
same,Above-ground portion (mm),Agrostis stolonifera; [4],18.8 mm
same,Roots (mm),Agrostis stolonifera; [4],3.9 mm
same,Roots/above-ground portion %,Agrostis stolonifera; [4],20.6%
same,Above-ground portion (mm),Agrostis stolonifera; [5],15.9 mm
same,Roots (mm),Agrostis stolonifera; [5],3.3 mm
same,Roots/above-ground portion %,Agrostis stolonifera; [5],20.8%
same,Above-ground portion (mm),Agrostis stolonifera; [6],17.3 mm
same,Roots (mm),Agrostis stolonifera; [6],3.5 mm
same,Roots/above-ground portion %,Agrostis stolonifera; [6],20.1%
same,Above-ground portion (mm),Agrostis stolonifera; [7],17.3 mm
same,Roots (mm),Agrostis stolonifera; [7],3.2 mm
same,Roots/above-ground portion %,Agrostis stolonifera; [7],18.8%
same,Root growth relative to above-ground portions,"Agrostis stolonifera; registered weight (283 ppm) and half-weight, planting day and 0.5 leaf cycle treatment",root growth tended to be promoted over that of above-ground portions
same,Effectiveness against brown patch,[1],extremely effective
